Among the test systems are KM12 colon; 786-0 renal; NCI/ADR-RES ovarian; SK-OV-3 ovarian; SW-620 colon; OVCAR-5 ovarian; MDA-MB-231 breast; RPMI-8226 leukemia; A498 renal; UACC-257 melanoma.
Experiment in all cases: NCI tumour cell line growth inhibition, 48 h

Our source for the GI50 and TGI values is PubChem BioAssay (NCI).

Where “and” joins values, the source holds several entries; their conditions need not be identical. Equal entries are not always repeated.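 Protocol summary: plate cells (96-well), add compound at 5 concentrations, incubate 48 h, interpolate endpoints linearly. GI50 marks 50% less growth. Definition used: TGI = concentration required for complete inhibition of growth.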 Some results are limits rather than exact numbers.

Consider `Cn1cc(C2=C(N3CCOCC3)C(=O)NC2=O)c2ccccc21`, for which the GI50 with KM12 colon, with 786-0 renal, in the experiment with NCI/ADR-RES ovarian, in the experiment with SK-OV-3 ovarian, with SW-620 colon and with OVCAR-5 ovarian was above 25 µM throughout. In addition, the GI50 in the experiment on MDA-MB-231 breast, in the experiment on RPMI-8226 leukemia, with A498 renal and with UACC-257 melanoma was above 25 µM each time. The TGI in the experiment with KM12 colon, in the experiment with 786-0 renal, in the experiment with NCI/ADR-RES ovarian, in the experiment on SK-OV-3 ovarian, with SW-620 colon and with OVCAR-5 ovarian was above 25 µM throughout. Further, the TGI in the experiment on MDA-MB-231 breast, with RPMI-8226 leukemia, in the experiment with A498 renal and in the experiment on UACC-257 melanoma was above 25 µM throughout.

Take `CN(C)CCCn1c(-c2nonc2N)nc2cnccc21`: the GI50 with KM12 colon, in the experiment with 786-0 renal, with NCI/ADR-RES ovarian, in the experiment on SK-OV-3 ovarian, in the experiment on SW-620 colon and in the experiment with OVCAR-5 ovarian was above 25 µM throughout. Moreover, the GI50 is above 25 µM with MDA-MB-231 breast, above 25 µM in the experiment on RPMI-8226 leukemia, 12 µM in the experiment on A498 renal and above 25 µM in the experiment with UACC-257 melanoma. In addition, the TGI with KM12 colon, in the experiment on 786-0 renal, in the experiment on NCI/ADR-RES ovarian, with SK-OV-3 ovarian, with SW-620 colon and in the experiment with OVCAR-5 ovarian was above 25 µM throughout. In addition, the TGI with MDA-MB-231 breast, in the experiment on RPMI-8226 leukemia, with A498 renal and in the experiment on UACC-257 melanoma was above 25 µM each time.

As for `COc1ccc(Cn2cc3c(c2-c2cc(OC)c(OC)c(OC)c2)CCc2cnoc2-3)cc1`, the GI50 is 0.281 µM with KM12 colon; 0.575 µM in the experiment with 786-0 renal; 0.242 µM in the experiment with NCI/ADR-RES ovarian; 0.365 µM in the experiment with SK-OV-3 ovarian; 0.314 µM in the experiment on SW-620 colon; 3.68 µM in the experiment on OVCAR-5 ovarian. For the same compound, the GI50 in the experiment with MDA-MB-231 breast was 0.735 µM; in the experiment on RPMI-8226 leukemia it was 0.356 µM; in the experiment on A498 renal it was 0.162 µM. In addition, the TGI was above 24.1 µM with KM12 colon; above 100 µM in the experiment with 786-0 renal; above 100 µM with NCI/ADR-RES ovarian; above 100 µM in the experiment on SK-OV-3 ovarian; above 100 µM with SW-620 colon; above 100 µM with OVCAR-5 ovarian. Further, the results for the TGI with MDA-MB-231 breast, in the experiment on A498 renal and in the experiment on UACC-257 melanoma were above 100 µM, 0.726 µM and above 100 µM, respectively.

For the compound `Cc1cc(C(=O)c2ccccc2)c(C)c2c1[nH]c1ccc(Cl)cc12`, the GI50 was 0.045 µM with KM12 colon; 0.0629 µM in the experiment on 786-0 renal; 0.0485 µM in the experiment on NCI/ADR-RES ovarian; 0.35 µM in the experiment with SK-OV-3 ovarian; 0.0497 µM in the experiment on SW-620 colon; 0.294 µM with OVCAR-5 ovarian. For the same compound, the GI50 was 0.255 µM in the experiment with MDA-MB-231 breast, 0.0581 µM in the experiment on RPMI-8226 leukemia, 0.0305 µM in the experiment with A498 renal and 4.48 µM in the experiment on UACC-257 melanoma. Besides, the TGI in the experiment on KM12 colon was 7.23 µM; with 786-0 renal, 3.51 µM; with NCI/ADR-RES ovarian, above 100 µM; in the experiment with SK-OV-3 ovarian, above 50.6 µM; with SW-620 colon, above 100 µM; in the experiment with OVCAR-5 ovarian, 28 µM. Besides, the TGI was determined as 5.71 µM with MDA-MB-231 breast, 22 µM in the experiment on RPMI-8226 leukemia, 0.282 µM in the experiment on A498 renal and 79.6 µM in the experiment on UACC-257 melanoma.

For the compound `Cc1ccc([C@]2(C)CC[C@H](C)/C2=C\Br)c(O)c1`, the GI50 with KM12 colon was 3.55 µM; with 786-0 renal it was 3.59 µM; with NCI/ADR-RES ovarian, 2.26 µM; with SK-OV-3 ovarian it was 2.45 µM; in the experiment on SW-620 colon, 3.98 µM; in the experiment with OVCAR-5 ovarian, 6.3 µM. For the same compound, the GI50 with MDA-MB-231 breast is 3.5 µM; in the experiment on RPMI-8226 leukemia it was 3.21 µM; with A498 renal, 5.31 µM; with UACC-257 melanoma, 9.22 µM. For the same compound, the TGI in the experiment with KM12 colon came to 13.7 µM; with 786-0 renal, 13.4 µM; with NCI/ADR-RES ovarian, 5.52 µM; with SK-OV-3 ovarian, 7.03 µM; in the experiment on SW-620 colon it was 16.2 µM; with OVCAR-5 ovarian, 18.6 µM. For the same compound, the TGI in the experiment with MDA-MB-231 breast worked out at 14.4 µM; in the experiment with RPMI-8226 leukemia, 24.7 µM; with A498 renal, 20.3 µM; in the experiment on UACC-257 melanoma, 22 µM.

Consider `Oc1ccc(N=Nc2ccccn2)c(O)c1`, for which the GI50 with KM12 colon was 0.699 µM; in the experiment with 786-0 renal, 0.394 µM; in the experiment with NCI/ADR-RES ovarian, 0.503 µM; in the experiment with SK-OV-3 ovarian, 1.23 µM; in the experiment with SW-620 colon, 0.757 µM; with OVCAR-5 ovarian, 2.23 µM. Besides, the GI50 was 0.641 µM in the experiment with MDA-MB-231 breast, 0.863 µM with RPMI-8226 leukemia, 16.7 µM with A498 renal and 3.06 µM with UACC-257 melanoma. Further, the TGI in the experiment on KM12 colon, with 786-0 renal, in the experiment on NCI/ADR-RES ovarian, with SK-OV-3 ovarian, in the experiment with SW-620 colon and in the experiment on OVCAR-5 ovarian was above 100 µM each time. The TGI in the experiment on MDA-MB-231 breast, in the experiment on RPMI-8226 leukemia, with A498 renal and in the experiment on UACC-257 melanoma was above 100 µM in each case.

Turning to `CC#Cc1nc(Nc2cc(C)[nH]n2)c2ccccc2n1`, the GI50 was 4.38 µM and 2.4 µM in the experiment on KM12 colon; 5.86 µM in the experiment on 786-0 renal; 6.63 µM in the experiment with NCI/ADR-RES ovarian; 5.19 µM in the experiment on SK-OV-3 ovarian; 4.54 µM with SW-620 colon; 5.69 µM in the experiment on OVCAR-5 ovarian. Moreover, the GI50 is 2.85 µM in the experiment on MDA-MB-231 breast; 6.95 µM and 3.32 µM with RPMI-8226 leukemia; 3.93 µM and 1.08 µM in the experiment on A498 renal; 5.52 µM with UACC-257 melanoma. The TGI is 12.4 µM in the experiment with KM12 colon; 29 µM in the experiment with 786-0 renal; above 100 µM with NCI/ADR-RES ovarian; 61.3 µM in the experiment on SK-OV-3 ovarian; 32.4 µM in the experiment with SW-620 colon; 30.7 µM in the experiment with OVCAR-5 ovarian. Further, the TGI in the experiment with MDA-MB-231 breast came out at 9.34 µM; in the experiment with RPMI-8226 leukemia, 22.2 µM; with A498 renal it was 2.75 µM; with UACC-257 melanoma, 20.9 µM.

Consider `Oc1ccc(Cc2cc(Cl)cc(Cl)c2O)cc1Cl`, for which the TGI in the experiment on KM12 colon stood at 49.6 µM; in the experiment on 786-0 renal, 43 µM; in the experiment with NCI/ADR-RES ovarian, 38.6 µM; in the experiment with SK-OV-3 ovarian it was 60.5 µM; with SW-620 colon it was 41.2 µM; in the experiment with OVCAR-5 ovarian it was 38.9 µM. For the same compound, the TGI stood at 34.3 µM in the experiment with MDA-MB-231 breast, 48.4 µM in the experiment with RPMI-8226 leukemia, 33.8 µM with A498 renal and 30.4 µM in the experiment on UACC-257 melanoma.

Regarding `NC(=S)NN=C1CSSC1`, the GI50 was 5.92 µM with KM12 colon; 11.9 µM in the experiment with 786-0 renal; 4.11 µM in the experiment with NCI/ADR-RES ovarian; 5.25 µM with SK-OV-3 ovarian; 8.06 µM in the experiment with SW-620 colon; 5.26 µM in the experiment on OVCAR-5 ovarian. Further, the GI50 in the experiment with MDA-MB-231 breast is 1.77 µM; in the experiment on RPMI-8226 leukemia, 11.4 µM; in the experiment on A498 renal, 1.95 µM; in the experiment on UACC-257 melanoma it was 1.93 µM. Moreover, the TGI in the experiment on KM12 colon is 23.5 µM; with 786-0 renal it was 72.5 µM; with NCI/ADR-RES ovarian, above 100 µM; in the experiment on SK-OV-3 ovarian, 25.1 µM; with SW-620 colon, above 100 µM; with OVCAR-5 ovarian, 40.9 µM. Besides, the TGI with MDA-MB-231 breast is 9.86 µM; with RPMI-8226 leukemia, 55.6 µM; with A498 renal, 6.03 µM; in the experiment with UACC-257 melanoma, 17.8 µM.

With `CC1(C)C(=O)/C(=C\c2cccnc2)C[C@]2(C)[C@H]3CC[C@@H]4[C@@H](C(=O)/C=C/c5ccncc5)CC[C@@]4(C)[C@]3(C)CC[C@@H]12`, the GI50 was 1.72 µM in the experiment on KM12 colon; 1.85 µM with 786-0 renal; 2.28 µM in the experiment with NCI/ADR-RES ovarian; 4.86 µM in the experiment with SK-OV-3 ovarian; 1.81 µM with SW-620 colon; 2.45 µM in the experiment with OVCAR-5 ovarian. For the same compound, the GI50 was 2.96 µM in the experiment with MDA-MB-231 breast, 1.21 µM in the experiment with RPMI-8226 leukemia, 1.89 µM with A498 renal and 1.8 µM in the experiment on UACC-257 melanoma. In addition, the TGI with KM12 colon turned out to be 3.56 µM; in the experiment on 786-0 renal, 3.41 µM; in the experiment on NCI/ADR-RES ovarian, 7.12 µM; in the experiment on SK-OV-3 ovarian, 18.9 µM; in the experiment with SW-620 colon it was 4.59 µM; in the experiment with OVCAR-5 ovarian, 5.36 µM. Also, the TGI in the experiment with MDA-MB-231 breast was 9.94 µM; in the experiment on RPMI-8226 leukemia it was 5.43 µM; in the experiment on A498 renal, 3.7 µM; with UACC-257 melanoma, 4.44 µM.

Turning to `CCCCCCCCCCCCCCCCCC(=O)Nc1ccn(C2OC(CO)C(O)C2O)c(=O)n1` (stereo not drawn), the TGI with KM12 colon, in the experiment with 786-0 renal, with NCI/ADR-RES ovarian, in the experiment with SK-OV-3 ovarian, in the experiment with SW-620 colon and with OVCAR-5 ovarian was above 100 µM each time. Also, the TGI is above 100 µM with MDA-MB-231 breast, above 100 µM with RPMI-8226 leukemia, 99 µM with A498 renal and above 100 µM in the experiment on UACC-257 melanoma.

In the case of `Nc1ncc(-c2cccc(S(N)(=O)=O)c2)c2scc(-c3ccc(F)c(Cl)c3)c12`, the GI50 in the experiment with KM12 colon is 5.56 µM; in the experiment on 786-0 renal, 6.02 µM; in the experiment on NCI/ADR-RES ovarian it was 7.14 µM; in the experiment with SK-OV-3 ovarian it was 5.14 µM; in the experiment with SW-620 colon, 6.21 µM; with OVCAR-5 ovarian it was 9.09 µM. In addition, the GI50 is 5.94 µM in the experiment on MDA-MB-231 breast, 4.92 µM with RPMI-8226 leukemia, 5.73 µM with A498 renal and 6.46 µM in the experiment with UACC-257 melanoma. Moreover, the TGI in the experiment with KM12 colon is 14.7 µM; in the experiment with 786-0 renal, 17 µM; in the experiment with NCI/ADR-RES ovarian, above 25 µM; in the experiment on SK-OV-3 ovarian, above 17.6 µM; with SW-620 colon, 14.3 µM; with OVCAR-5 ovarian, above 22.2 µM. Moreover, the TGI with MDA-MB-231 breast is above 25 µM; in the experiment on RPMI-8226 leukemia, 14.9 µM; in the experiment on A498 renal, 15.4 µM; with UACC-257 melanoma, 17.2 µM.
